Source: patent publication US11739074B2, “Ras inhibitors” (Revolution Medicines, Inc., priority 2019, dated 2023)
pEC50, pIC50: −log10 of the molar value. Where “and” joins values, the source holds several entries; their conditions need not be identical. Equal values may be shown once. Read-outs that look alike come from different tables or passages of the source.

Tests used:
AsPC-1 (K-Ras G12D) [1] = assay: CellTiter-Glo cell viability assay, AsPC-1; format: cell-based; details: Homo sapiens, ASPC1, 120 h, AsPC-1, K-Ras G12D, 5-day treatment; read-out: AsPC-1 Cell Viability IC50
Procedure, shortened: (§1)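 Luminescence from CellTiter-Glo serves as the viability read-out after cells are treated with compound for 5 days. Each well's signal is divided by the DMSO average and multiplied by 100, and curves are fitted by four-parameter logistic regression.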

AsPC-1 (K-Ras G12D) [2] = assay: Potency assay: pERK in AsPC-1 cells; format: cell-based; details: Homo sapiens
KRAS G12C = KRAS G12C (Homo sapiens, UniProt P01116+P62937, G12C); assay: Ras-Raf disruption/FRET/MOA assay, KRAS G12C; format: biochemical; details: disruption of BRAF RBD binding, with Cyclophilin A; read-out: KRAS G12C FRET IC50
Sequence of KRAS G12C (P01116 1-169 isoform P01116-2 G12C limits assumed): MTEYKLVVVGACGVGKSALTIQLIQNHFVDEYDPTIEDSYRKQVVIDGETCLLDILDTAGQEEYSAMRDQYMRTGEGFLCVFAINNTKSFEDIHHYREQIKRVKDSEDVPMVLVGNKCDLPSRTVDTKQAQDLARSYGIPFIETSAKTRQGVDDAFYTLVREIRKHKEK
Sequence of KRAS G12C (P62937 whole entry, the tested form may be a part): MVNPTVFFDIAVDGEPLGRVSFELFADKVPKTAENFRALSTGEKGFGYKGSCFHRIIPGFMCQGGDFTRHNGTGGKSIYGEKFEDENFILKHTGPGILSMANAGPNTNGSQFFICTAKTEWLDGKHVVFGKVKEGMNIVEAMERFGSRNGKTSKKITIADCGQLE
From the text: (§2) Disruption of B-Raf Ras-Binding Domain (BRAF^RBD) Interaction with K-Ras by Compounds of the Invention (Also Called a FRET Assay or an MOA Assay)
(§3) Note—The following protocol describes a procedure for monitoring disruption of K-Ras G12C (GMP-PNP) binding to BRAF^RBD by a compound of the invention. This protocol may also be executed substituting other Ras proteins or nucleotides, such as K-Ras G12D and K-Ras G13D.
(§4) The purpose of this biochemical assay was to measure the ability of test compounds to facilitate ternary complex formation between a nucleotide-loaded K-Ras isoform and Cyclophilin A; the resulting ternary complex disrupts binding to a BRAF^RBD construct, inhibiting K-Ras signaling through a RAF effector.
(§5) In assay buffer containing 25 mM HEPES pH 7.3, 0.002% Tween20, 0.1% BSA, 100 mM NaCl and 5 mM MgCl2, tagless Cyclophilin A, His6-K-Ras-GMPPNP, and GST-BRAF^RBD were combined in a 384-well assay plate at final concentrations of 25 μM, 12.5 nM, and 50 nM, respectively. Compound was present in plate wells as a 10-point 3-fold dilution series starting at a final concentration of 30 μM. After incubation at 25° C. for 3 hours, a mixture of anti-His Eu-W1024 and anti-GST allophycocyanin was then added to assay sample wells at final concentrations of 10 nM and 50 nM, respectively, and the reaction incubated for an additional 1.5 hours. […] Compounds that facilitate disruption of a K-Ras:RAF complex were identified as those eliciting a decrease in the TR-FRET ratio relative to DMSO control wells.

NCI-H358 (K-Ras G12C) = assay: CellTiter-Glo cell viability assay, H358; format: cell-based; details: Homo sapiens, NCI-H358, 120 h
Procedure, shortened: as §1

KRAS G12D = KRAS G12D (Homo sapiens, UniProt P01116+P62937, G12D); assay: Ras-Raf disruption/FRET/MOA assay, KRAS G12D; format: biochemical
Sequence of KRAS G12D (P01116 1-169 isoform P01116-2 G12D limits assumed): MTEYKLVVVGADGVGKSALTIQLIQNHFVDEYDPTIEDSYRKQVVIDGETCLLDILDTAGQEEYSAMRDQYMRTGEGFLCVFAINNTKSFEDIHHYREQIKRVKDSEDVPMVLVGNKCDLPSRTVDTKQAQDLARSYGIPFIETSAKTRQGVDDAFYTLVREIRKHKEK
Sequence of KRAS G12D (P62937 whole entry): as the sequence (P62937 whole entry, the tested form may be a part) above
From the text: as §2, §3, §4, §5

KRAS G12V = KRAS G12V (Homo sapiens, UniProt P01116+P62937, G12V); assay: Ras-Raf disruption/FRET/MOA assay, KRAS G12V; format: biochemical
Sequence of KRAS G12V (P01116 1-169 isoform P01116-2 G12V limits assumed): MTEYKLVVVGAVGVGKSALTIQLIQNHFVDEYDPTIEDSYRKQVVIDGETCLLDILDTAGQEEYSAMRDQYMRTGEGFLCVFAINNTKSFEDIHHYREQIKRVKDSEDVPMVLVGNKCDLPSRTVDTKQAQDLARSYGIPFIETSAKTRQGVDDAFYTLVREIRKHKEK
Sequence of KRAS G12V (P62937 whole entry): as the sequence (P62937 whole entry, the tested form may be a part) above
From the text: as §2, §3, §4, §5

NRAS G12C = biological target: T1, NRAS G12C (Homo sapiens, UniProt P01111+P62937, G12C); assay: Ras-Raf disruption/FRET/MOA assay, NRAS G12C; format: biochemical
T1 construct: His6
T1 sequence (P01111 whole entry G12C): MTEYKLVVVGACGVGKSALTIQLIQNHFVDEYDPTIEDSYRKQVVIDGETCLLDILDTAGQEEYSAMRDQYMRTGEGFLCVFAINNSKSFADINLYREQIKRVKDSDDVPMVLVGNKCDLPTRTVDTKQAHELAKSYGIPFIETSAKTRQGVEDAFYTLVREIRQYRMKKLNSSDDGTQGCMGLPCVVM
T1 sequence (P62937 whole entry): as the sequence (P62937 whole entry, the tested form may be a part) above
From the text: as §2, §3, §4, §5

KRAS WT = KRAS WT (Homo sapiens, UniProt P01116+P62937); assay: Ras-Raf disruption/FRET/MOA assay, KRAS WT; format: biochemical
Sequence of KRAS WT (P01116 1-169 isoform P01116-2 limits assumed): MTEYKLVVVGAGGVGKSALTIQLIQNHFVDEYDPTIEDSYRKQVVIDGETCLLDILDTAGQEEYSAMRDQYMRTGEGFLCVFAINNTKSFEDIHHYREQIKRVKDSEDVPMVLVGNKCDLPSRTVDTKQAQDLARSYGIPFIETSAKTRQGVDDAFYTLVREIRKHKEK
Sequence of KRAS WT (P62937 whole entry): as the sequence (P62937 whole entry, the tested form may be a part) above
From the text: as §2, §3, §4, §5

KRAS G13D = KRAS G13D (Homo sapiens, UniProt P01116+P62937, G13D); assay: Ras-Raf disruption/FRET/MOA assay, KRAS G13D; format: biochemical
Sequence of KRAS G13D (P01116 1-169 isoform P01116-2 G13D limits assumed): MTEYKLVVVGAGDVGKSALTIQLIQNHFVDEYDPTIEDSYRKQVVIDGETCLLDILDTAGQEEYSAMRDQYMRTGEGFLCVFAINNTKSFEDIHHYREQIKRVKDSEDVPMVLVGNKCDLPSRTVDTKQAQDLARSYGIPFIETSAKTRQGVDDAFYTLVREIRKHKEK
Sequence of KRAS G13D (P62937 whole entry): as the sequence (P62937 whole entry, the tested form may be a part) above
From the text: as §2, §3, §4, §5

KRAS G12S = KRAS G12S (Homo sapiens, UniProt P01116+P62937, G12S); assay: Ras-Raf disruption/FRET/MOA assay, KRAS G12S; format: biochemical
Sequence of KRAS G12S (P01116 1-169 isoform P01116-2 G12S limits assumed): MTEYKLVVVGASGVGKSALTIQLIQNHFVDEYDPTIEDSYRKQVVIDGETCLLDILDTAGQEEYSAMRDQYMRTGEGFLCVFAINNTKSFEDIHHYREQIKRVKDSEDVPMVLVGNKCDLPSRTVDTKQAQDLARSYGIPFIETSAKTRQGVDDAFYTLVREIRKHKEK
Sequence of KRAS G12S (P62937 whole entry): as the sequence (P62937 whole entry, the tested form may be a part) above
From the text: as §2, §3, §4, §5

KRAS G13C = KRAS G13C (Homo sapiens, UniProt P01116+P62937, G13C); assay: Ras-Raf disruption/FRET/MOA assay, KRAS G13C; format: biochemical
Sequence of KRAS G13C (P01116 1-169 isoform P01116-2 G13C limits assumed): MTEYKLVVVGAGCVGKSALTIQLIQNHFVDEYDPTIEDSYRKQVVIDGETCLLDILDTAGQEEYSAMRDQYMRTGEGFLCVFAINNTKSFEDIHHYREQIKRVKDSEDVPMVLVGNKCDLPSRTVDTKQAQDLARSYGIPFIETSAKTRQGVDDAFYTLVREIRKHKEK
Sequence of KRAS G13C (P62937 whole entry): as the sequence (P62937 whole entry, the tested form may be a part) above
From the text: as §2, §3, §4, §5

[3] = ASPC1, AsPC-1 cells, K-Ras G12D, read-out: pERK EC50 (AsPC-1 KRAS G12D)
[4] = NCI-H358, K-Ras G12C, 5-day treatment, read-out: H358 Cell Viability IC50
[5] = disruption of BRAF RBD binding, with Cyclophilin A, read-out: KRAS G12D FRET IC50
[6] = disruption of BRAF RBD binding, with Cyclophilin A, read-out: KRAS G12V FRET IC50
[7] = NRAS G12C, read-out: NRAS G12C FRET data IC50
[8] = disruption of BRAF RBD binding, with Cyclophilin A, read-out: KRAS WT FRET IC50
[9] = disruption of BRAF RBD binding, with Cyclophilin A, read-out: KRAS G13D FRET IC50
[10] = disruption of BRAF RBD binding, with Cyclophilin A, read-out: KRAS G12S FRET IC50

## CCn1c(-c2cccnc2[C@H](C)OC)c2c3cc(ccc31)-c1csc(n1)C[C@H](NC(=O)[C@H](C(C)C)N(C)C(=O)N1CC(N(C)C(=O)[C@H]3CN3)C1)C(=O)N1CCC[C@H](N1)C(=O)OCC(C)(C)C2 (atropisomer, axis not shown) [Compound 218]
AsPC-1 (K-Ras G12D) [1]
  pIC50: 5.00 to 6.00
AsPC-1 (K-Ras G12D) [2]; [3]
  pEC50: > 5.30
KRAS G12C
  pIC50: 6.00 to 7.00

## CCn1c(-c2cnccc2COC)c2c3cc(ccc31)-c1cccc(c1)C[C@H](NC(=O)[C@H](C(C)C)N(C)C(=O)CCN=C=NCCCN1CCOCC1)C(=O)N1CCC[C@H](N1)C(=O)OCC(C)(C)C2 [17 A and B]
AsPC-1 (K-Ras G12D) [1]
  pIC50: 5.00 to 6.00
AsPC-1 (K-Ras G12D) [2]; [3]
  pEC50: > 5.30
NCI-H358 (K-Ras G12C); [4]
  pIC50: 5.00 to 6.00
KRAS G12C
  pIC50: 6.00 to 7.00

## CCCN=C=NCCC(=O)N(C)[C@H](C(=O)N[C@H]1Cc2cccc(c2)-c2ccc3c(c2)c(c(-c2cnccc2COC)n3CC)CC(C)(C)COC(=O)[C@@H]2CCCN(N2)C1=O)C(C)C [22 A and B]
AsPC-1 (K-Ras G12D) [1]
  pIC50: 5.00 to 6.00
KRAS G12D; [5]
  pIC50: 5.00 to 6.00
NCI-H358 (K-Ras G12C); [4]
  pIC50: 5.00 to 6.00

## CCn1c(-c2cnccc2COC)c2c3cc(ccc31)-c1cccc(c1)C[C@H](NC(=O)[C@H](C(C)C)N(C)C(=O)CCCN=C=NCCCOC)C(=O)N1CCC[C@H](N1)C(=O)OCC(C)(C)C2 [69 A and B]
AsPC-1 (K-Ras G12D) [1]
  pIC50: 5.00 to 6.00
KRAS G12V; [6]
  pIC50: < 5.00
NCI-H358 (K-Ras G12C); [4]
  pIC50: 5.00 to 6.00

## CCn1c(-c2cnccc2COC)c2c3cc(ccc31)-c1cccc(c1)C[C@H](NC(=O)[C@H](C(C)C)N(C)C(=O)[C@@H]1CC[C@@H](N=C=Nc3ccc(OC)cc3)C1)C(=O)N1CCC[C@H](N1)C(=O)OCC(C)(C)C2 [70 A and B]
KRAS G12V; [6]
  pIC50: < 5.00
NRAS G12C; [7]
  pIC50: 6.00 to 7.00 and < 5.00
KRAS WT; [8]
  pIC50: < 5.00
KRAS G13D; [9]
  pIC50: < 5.00
KRAS G12S; [10]
  pIC50: < 5.00

## CCn1c(-c2cnccc2COC)c2c3cc(ccc31)-c1cccc(c1)C[C@H](NC(=O)[C@H](C(C)C)N(C)C(=O)[C@H]1CC[C@H](N=C=Nc3ccc(OC)cc3)C1)C(=O)N1CCC[C@H](N1)C(=O)OCC(C)(C)C2 [71 A and B]
KRAS G13C; disruption of BRAF RBD binding, with Cyclophilin A, read-out: KRAS G13C FRET IC50
  pIC50: < 5.00
KRAS G12V; [6]
  pIC50: < 5.00
NRAS G12C; [7]
  pIC50: 6.00 to 7.00 and < 5.00
KRAS G12D; [5]
  pIC50: < 5.00
KRAS WT; [8]
  pIC50: < 5.00
KRAS G13D; [9]
  pIC50: < 5.00
KRAS G12S; [10]
  pIC50: < 5.00

## CCn1c(-c2cnccc2COC)c2c3cc(ccc31)-c1cc(O)cc(c1)C[C@H](NC(=O)[C@@H](CCNC(=O)NCCCl)C(C)C)C(=O)N1CCC[C@H](N1)C(=O)OCC(C)(C)C2 [Compound 26]
KRAS G12V; [6]
  pIC50: < 5.00
NCI-H358 (K-Ras G12C); read-out: H358 Cell Viability IC50
  pIC50: 5.00 to 6.00

## CCn1c(-c2cccnc2COC)c2c3cc(ccc31)-c1cc(O)cc(c1)C[C@H](NC(=O)[C@H](C(C)C)N(C)C(=O)CCNC1=NCCO1)C(=O)N1CCC[C@H](N1)C(=O)OCC(C)(C)C2 [Compound 27]
KRAS G12V; [6]
  pIC50: < 5.00
NCI-H358 (K-Ras G12C); [4]
  pIC50: < 5.00

## CCn1c(-c2cccnc2COC)c2c3cc(ccc31)-c1cc(O)cc(c1)C[C@H](NC(=O)[C@H](C(C)C)N(C)C(=O)CNC1=NCCO1)C(=O)N1CCC[C@H](N1)C(=O)OCC(C)(C)C2 [Compound 28]
AsPC-1 (K-Ras G12D) [1]
  pIC50: < 5.00
KRAS G12V; [6]
  pIC50: < 5.00
NCI-H358 (K-Ras G12C); [4]
  pIC50: < 5.00

## CCn1c(-c2cnccc2COC)c2c3cc(ccc31)-c1cc(O)cc(c1)C[C@H](NC(=O)[C@H](C(C)C)N(C)C(=O)CN(C)C(=O)C1CN1)C(=O)N1CCC[C@H](N1)C(=O)OCC(C)(C)C2 (some centres unmarked) [Compound 33]
KRAS G13C
  pIC50: 6.00 to 7.00
KRAS G12V
  pIC50: 6.00 to 7.00
NRAS G12C; NRAS G12C FRET data IC50, NRAS G12C
  pIC50: 7.00 to 8.00
AsPC-1 (K-Ras G12D) [2]; ASPC1, read-out: pERK EC50 (AsPC-1 KRAS G12D)
  pEC50: > 5.30
KRAS G12D
  pIC50: 6.00 to 7.00
KRAS WT
  pIC50: 6.00 to 7.00
KRAS G13D
  pIC50: 6.00 to 7.00
KRAS G12S
  pIC50: 7.00 to 8.00

## CCn1c(-c2cnccc2COC)c2c3cc(ccc31)-c1cc(O)cc(c1)C[C@H](NC(=O)[C@@H](CN(C)C(=O)[C@@H]1CN1)C(C)C)C(=O)N1CCC[C@H](N1)C(=O)OCC(C)(C)C2 [Compound 60]
AsPC-1 (K-Ras G12D) [1]
  pIC50: 5.00 to 6.00
KRAS G12V; [6]
  pIC50: < 5.00
NCI-H358 (K-Ras G12C); [4]
  pIC50: 5.00 to 6.00
KRAS G12C
  pIC50: < 5.00

## CCn1c(-c2cnccc2COC)c2c3cc(ccc31)-c1cccc(c1)C[C@H](NC(=O)[C@H](C(C)C)N(C)C(=O)CCN=C=Nc1ccccc1COC)C(=O)N1CCC[C@H](N1)C(=O)OCC(C)(C)C2 [Compound 63]
AsPC-1 (K-Ras G12D) [1]
  pIC50: 5.00 to 6.00
KRAS G12V; [6]
  pIC50: < 5.00
NCI-H358 (K-Ras G12C); [4]
  pIC50: 6.00 to 7.00

## CCn1c(-c2cnccc2COC)c2c3cc(ccc31)-c1cccc(c1)C[C@H](NC(=O)[C@H](C(C)C)N1CC[C@H](CN=C=Nc3ccc(OC)cc3)C1)C(=O)N1CCC[C@H](N1)C(=O)OCC(C)(C)C2 [Compound 81]
AsPC-1 (K-Ras G12D) [1]
  pIC50: 5.00 to 6.00
KRAS G12V; [6]
  pIC50: < 5.00

## CCn1c(-c2cnccc2COC)c2c3cc(ccc31)-c1cc(O)cc(c1)C[C@H](NC(=O)[C@@H](CN(C)C(=O)[C@H]1CN1)C(C)C)C(=O)N1CCC[C@H](N1)C(=O)OCC(C)(C)C2 [Compound 99]
AsPC-1 (K-Ras G12D) [1]
  pIC50: < 5.00
KRAS G12V; [6]
  pIC50: < 5.00
KRAS G12C
  pIC50: < 5.00

## CCn1c(-c2cccnc2[C@H](C)OC)c2c3cc(ccc31)-c1cc(O)cc(c1)C[C@H](NC(=O)[C@H](C(C)C)N(C)C(=O)C1CC3(C1)CN(C(=O)[C@H]1CN1)C3)C(=O)N1CCC[C@H](N1)C(=O)OCC(C)(C)C2 [Compound 181]
AsPC-1 (K-Ras G12D) [1]
  pIC50: < 5.00
KRAS G12D; [5]
  pIC50: 6.00 to 7.00

## CCn1c(-c2cccnc2COC)c2c3cc(ccc31)-c1cc(O)cc(c1)C[C@H](NC(=O)[C@H](C(C)C)N(C)C(=O)CCNC(=O)NCCCl)C(=O)N1CCC[C@H](N1)C(=O)OCC(C)(C)C2 [Example 25, (2S)-2-(3-(3-(2-chloroethyl)ureido)-N-methylpropanamido)-N-((6^3S,4S)-1^1-ethyl-2^5-hydroxy-1^2-(2-(methoxymethyl)pyridin-3-yl)-10,10-dimethyl-5,7-dioxo-6^1,6^2,6^3,6^4,6^5,6^6-hexahydro-1^1H-8-oxa-1(5,3)-indola-6(1,3)-pyridazina-2(1,3)-benzenacycloundecaphane-4-yl)-3-methylbutanamide]
KRAS G12V
  pIC50: < 5.00
NCI-H358 (K-Ras G12C); read-out: H358 Cell Viability IC50, NCI-H358, K-Ras G12C, 5-day treatment
  pIC50: < 5.00
